Data set [1] has as its system Bovine retinal endothelial cells (BRECs). In words: In vitro oxidant stress assay (MTS viable cell assay) in retinal endothelial cells exposed to t-butyl hydroperoxide. It counts as cell-based. As for the experimental part:
The present example provides a study wherein cultured retinal endothelial cells were exposed to an oxidant stress to evaluate the protective effects of pretreatment with quercetin. In addition, the present example provides an assay system for screening compounds for therapeutic activity in nonproliferative diabetic retinopathy.
Bovine retinal endothelial cells (BRECs) (VEC Technologies, Rensselaer, N.Y.) were grown on fibronectin ([…])-coated plasticware at 37° C. in 5% CO2 in MCDB-131 Complete media (VEC Technologies, Rensselaer, N.Y.). For serum-free media (SFM) conditions, MCDB-131 was used supplemented at 5 ml/500 ml with 100× antibiotic/antimycotic, 10 mM L-glutamine, and 0.1% BSA (all from Life Technologies Inc., Grand Island, N.Y.).
The BRECs were seeded at 10,000 cells/well and allowed to attach and grow for three days in 0.2 ml/well in complete media (10% fetal bovine serum (FBS)). The complete media was replaced with SFM for the next twenty-four hours at which time 25 μM quercetin, 100 μM DL-buthionine-(S,R)-sulfoximine (BSO, Sigma, St. Louis, Mo.), and the 0.1% DMSO were added. The next day all media was replaced with SFM (0.1 ml/well) containing 0-500 μM t-butyl hydroperoxide (ICN Biomedicals, Irvine, Calif.). After four hours incubation at 37° C. in 5% CO2 the assay was started by adding 20 μl of a mixture of twenty parts MTS (3-(4,5-dimethythiazol-2-yl)-5-(3-carboxymethoxyphenyl)-2-(4-sulfophenyl)-2H-tetrazolium, inner salt) and one part PMS (phenazine methosulfate) from the Promega ClelTiter 96® AQueous Non-Radioactive Cell Proliferation Assay kit (Promega Corporation, Madison, Wis.). The plates were returned to the incubator for three hours and then net absorbances at 490 nm, obtained by subtraction of a blank mean, were recorded and used as a measure of levels of viable cells.
Using six wells per condition, the assay was carried out three times. The absorbance values were normalized such that the control wells without t-butyl hydroperoxide equaled 100%, and data from the three assays were pooled. An overall statistical difference was found among treatment groups (see FIGURE; ANOVA, P<0.05).

For data set [2], the system named is experimentally induced diabetic rats. The following applies: oral administration; cited from earlier work.
The test system of a further data set is cultured human RPE cells. As to conditions: cited from earlier work.
Data set [3] has as its system γ-glutamylcysteine synthetase. The following applies: cited from earlier work.
The subject of data set [4] is phase II detoxification enzyme. As to conditions: human retinal pigment epithelial cells; cited from earlier work.
In data set [5] the test system is quinone reductase, glutathione-S-transferase, and glutathione reductase. The following applies: various cell lines including human adult retinal pigment epithelial cells; cited from earlier work.

On to `CCCCS(=N)(=O)CCC(N)C(=O)O` (racemic) [BS, DL-buthionine-(S,R)-sulfoximine], for which the cell survival entry in data set [1] (100 μM BSO pretreatment alone, no t-butyl hydroperoxide) is reported as “no effect on cell survival”. The “effect on toxicity of t-butyl hydroperoxide” value in data set [1] (100 μM BSO pretreatment, all t-butyl hydroperoxide concentrations) is on record as “significantly enhanced the toxicity”. In the case of `O=c1c(-c2ccc(O)cc2)coc2cc(O)cc(O)c12` [genistein], in data set [2], the retinal vascular leakage entry is recorded as “reduces retinal vascular leakage”. Turning to `Cc1c(-c2cnccn2)ssc1=S` [oltipraz], in the data set with cultured human RPE cells, the “protection from chemical oxidants” value is recorded as “Protection of cultured human RPE cells from chemical oxidants”. As for `O=c1c(O)c(-c2ccc(O)c(O)c2)oc2cc(O)cc(O)c12` [quercetin], in data set [3], the glutathione levels entry is reported as “increase glutathione levels”. Further, in data set [1] (25 μM quercetin pretreatment, then 0-500 μM t-butyl hydroperoxide 4 h, versus control group at each t-butyl hydroperoxide concentration), the “numbers of viable cells (net absorbance at 490 nm, normalized to control without t-butyl hydroperoxide = 100%)” value is given as “higher numbers of viable cells than in the control group”. With `C[S+]([O-])CCCCN=C=S` (stereo not shown) [sulforaphane], the “induction of a phase II detoxification enzyme” value in data set [4] is reported as “induction of a phase II detoxification enzyme”. For the same molecule, the enzyme induction entry in data set [5] is “induce quinone reductase, glutathione-S-transferase, and glutathione reductase”. For the same molecule, the “protection from chemical oxidants” value in the data set on cultured human RPE cells is reported as “Protection of cultured human RPE cells from chemical oxidants”. Take `CC(C)(C)OO` [t-butyl hydroperoxide]: the cell survival entry in data set [1] (t-butyl hydroperoxide exposure 4 h, all concentrations up to 500 μM) is listed as “significant reductions in cell survival”.

These data come from patent US20100204244A1, “AGENTS FOR TREATMENT OF DIABETIC RETINOPATHY AND DRUSEN FORMATION IN MACULAR DEGENERATION” (ALCON INC., priority 2003, published 2010).
